Patent US20090209528A1, “SUBSTITUTED TETRAHYDROISOQUINOLINE COMPOUND, THEIR PREPARATION AND USE IN MEDICAMENTS” (LABORATORIOS DEL DR. ESTEVE S.A., priority 2006, published 2009)
Counter-ions that a name gives are not always drawn.

Biological target: T1, 5HT6-human recombinant receptor (Homo sapiens, UniProt P50406)
T1 construct: purchased Receptor Biology; host or cells: HEK-293 cell membranes
Assay: Binding to serotonin receptor 5-HT6 ([3H]-LSD displacement)
Conditions: radioligand [3H]-LSD 2.7 nM; for inhibition at 0.01 µM / inhibition at 0.1 µM: 1 h; for Ki: membranes of HEK-293 cells expressing the receptor, 60 min, 37° C.
Experimental: Cell membranes of HEK-293 cells expressing the 5HT6-human recombinant receptor were supplied by Receptor Biology. In said membranes the receptor concentration is 2.18 pmol/mg protein and the protein concentration is 9.17 mg/ml. The experimental protocol follows the method of B. L. Roth et al. [B. L. Roth, S. C. Craigo, M. S. Choudhary, A. Uluer, F. J. Monsma, Y. Shen, H. Y. Meltzer, D. R. Sibley: Binding of Typical and Atypical Antipsychotic Agents to 5-Hydroxytryptamine-6 and Hydroxytryptamine-7 Receptors. The Journal of Pharmacology and Experimental Therapeutics, 1994, 268, 1403] with the following slight changes. The respective part of the literature description is hereby incorporated by reference and forms part of the disclosure.
The commercial membrane is diluted (1:40 dilution) with the binding buffer: 50 mM Tris-HCl, 10 mM MgCl2, 0.5 mM EDTA (pH 7.4). The radioligand used is [^3H]-LSD at a concentration of 2.7 nM with a final volume of 200 μl. Incubation is initiated by adding 100 μl of membrane suspension, (≈22.9 μg membrane protein), and is prolonged for 60 minutes at a temperature of 37° C. The incubation is ended by fast filtration in a Brandel Cell Harvester through fiber glass filters made by Schleicher & Schuell GF 3362 pretreated with a solution of polyethylenimine at 0.5%. The filters are washed three times with three milliliters of buffer Tris-HCl 50 mM pH 7.4. The filters are transferred to flasks and 5 ml of Ecoscint H liquid scintillation cocktail are added to each flask. The flasks are allowed to reach equilibrium for several hours before counting with a Wallac Winspectral 1414 scintillation counter. Non-specific binding is determined in the presence of 100 μM of serotonin. Tests were made in triplicate. The inhibition constants (Ki, nM) were calculated by non-linear regression analysis using the program EBDA/LIGAND described in Munson and Rodbard, Analytical Biochemistry, 1980, 107, 220, the respective part of which is hereby incorporated by reference and forms part of the disclosure.

T1 sequence (P50406 whole entry): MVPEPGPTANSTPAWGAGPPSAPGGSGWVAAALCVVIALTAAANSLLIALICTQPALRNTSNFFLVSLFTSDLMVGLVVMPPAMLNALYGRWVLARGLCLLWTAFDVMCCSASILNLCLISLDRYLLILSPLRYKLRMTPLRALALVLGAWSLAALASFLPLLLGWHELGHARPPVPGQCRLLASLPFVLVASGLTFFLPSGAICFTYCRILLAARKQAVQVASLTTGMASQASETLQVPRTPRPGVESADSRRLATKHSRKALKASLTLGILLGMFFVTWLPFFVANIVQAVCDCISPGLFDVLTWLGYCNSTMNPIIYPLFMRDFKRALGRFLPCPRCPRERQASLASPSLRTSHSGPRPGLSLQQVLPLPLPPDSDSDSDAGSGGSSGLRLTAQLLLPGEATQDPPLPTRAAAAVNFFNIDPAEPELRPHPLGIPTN

O=S(=O)(Nc1ccc2c(c1)CCNC2)c1cccc2c(Cl)cccc12 [Example 42, 5-Chloro-naphthalene-1-sulfonic acid (1,2,3,4-tetrahydro-isoquinolin-6-yl)-amide hydrochloride] was tested, and the inhibition at 0.01 µM (compound at 10 nM) was 78.2%, the inhibition at 0.1 µM (compound at 100 nM) was 88.9% and the Ki was 9.3 ± 2.2 nM.

With CN1CCc2ccc(NS(=O)(=O)c3c(Cl)nc4sccn34)cc2C1 [Example 53, 6-Chloro-imidazo[2,1-b]thiazole-5-sulfonic acid (2-methyl-1,2,3,4-tetrahydro-isoquinolin-7-yl)-amide hydrochloride] the inhibition at 0.01 µM (compound at 10 nM) was 55.4%, the inhibition at 0.1 µM (compound at 100 nM) was 82.8% and the Ki was 3.8 ± 1 nM.

For O=S(=O)(Nc1ccc2c(c1)CNCC2)c1c(Cl)nc2sccn12 [Example 54, 6-Chloro-imidazo[2,1-b]thiazole-5-sulfonic acid (1,2,3,4-tetrahydro-iso-quinolin-7-yl)-amide hydrochloride], the inhibition at 0.01 µM (compound at 10 nM) was 81%, the inhibition at 0.1 µM (compound at 100 nM) was 91.9% and the Ki was 10.7 ± 4.8 nM.

Work on Cc1ccc(S(=O)(=O)Nc2ccc3c(c2)CNCC3)c2ccccc12 [Example 55, 4-Methyl-naphthalene-1-sulfonic acid (1,2,3,4-tetrahydro-isoquinolin-7-yl)-amide hydrochloride] yielded an inhibition at 0.01 µM (compound at 10 nM) of 82.3%, an inhibition at 0.1 µM (compound at 100 nM) of 84.9% and a Ki of 3.8 ± 1.2 nM.

Cc1ccc(S(=O)(=O)Nc2ccc3c(c2)CN(C)CC3)c2ccccc12 [Example 56, 4-Methyl-naphthalene-1-sulfonic acid (2-methyl-1,2,3,4-tetrahydro-isoqui-nolin-7-yl)-amide hydrochloride] showed an inhibition at 0.01 µM (compound at 10 nM) of 86.8%, an inhibition at 0.1 µM (compound at 100 nM) of 92.8% and a Ki of 10.3 nM.

Cc1c(S(=O)(=O)Nc2ccc3c(c2)CNCC3)sc2ccc(Cl)cc12 [Example 60, 5-Chloro-3-methyl-benzo[b]thiophene-2-sulfonic acid (1,2,3,4-tetrahydro-isoquinolin-7-yl)-amide hydrochloride] gave an inhibition at 0.01 µM (compound at 10 nM) of 44.8%, an inhibition at 0.1 µM (compound at 100 nM) of 65.1% and a Ki of 49.4 ± 8.2 nM.

O=S(=O)(Nc1ccc2c(c1)CNCC2)c1cccc2ccccc12 [Example 61, Naphthalene-1-sulfonic acid (1,2,3,4-tetrahydro-isoquinolin-7-yl)-amide hydrochloride] gave an inhibition at 0.01 µM (compound at 10 nM) of 78.6%, an inhibition at 0.1 µM (compound at 100 nM) of 85.5% and a Ki of 3.2 ± 0.4 nM.

In the case of O=S(=O)(Nc1ccc2c(c1)CNCC2)c1ccccc1-c1ccccc1 [Example 62, Biphenyl-2-sulfonic acid (1,2,3,4-tetrahydro-isoquinolin-7-yl)-amide hydrochloride], the inhibition at 0.01 µM (compound at 10 nM) is reported as 89%, the inhibition at 0.1 µM (compound at 100 nM) is reported as 86.4% and the Ki is reported as 2.4 ± 0.5 nM.

Cc1c(S(=O)(=O)Nc2ccc3c(c2)CNCC3)sc2ccc(F)cc12 [Example 64, 5-Fluoro-3-methyl-benzo[b]thiophene-2-sulfonic acid (1,2,3,4-tetrahydro-isoquinolin-7-yl)-amide hydrochloride] showed an inhibition at 0.01 µM (compound at 10 nM) of 41.9%, an inhibition at 0.1 µM (compound at 100 nM) of 66.9% and a Ki of 55.8 ± 24.1 nM.

In the case of O=S(=O)(Nc1ccc2c(c1)CNCC2)c1cccc2nonc12 [Example 72, Benzo[1,2,5]oxadiazole-4-sulfonic acid (1,2,3,4-tetrahydro-isoquinolin-7-yl)-amide hydrochloride], the inhibition at 0.01 µM (compound at 10 nM) is reported as 45.5%, the inhibition at 0.1 µM (compound at 100 nM) is reported as 64.7% and the Ki is reported as 54.6 nM.

For Cc1ccc2nsnc2c1S(=O)(=O)Nc1ccc2c(c1)CNCC2 [Example 76, 5-Methylbenzo[1,2,5] thiadiazole-4-sulfonic acid (1,2,3,4-tetrahydro-isoquinolin-7-yl)-amide hydrochloride], the inhibition at 0.01 µM (compound at 10 nM) was 73.1%, the inhibition at 0.1 µM (compound at 100 nM) was 83.2% and the Ki was 19.2 ± 2.4 nM.

Work on O=S(=O)(Nc1ccc2c(c1)CNCC2)c1csc2ccccc12 [Example 78, Benzo[b]thiophene-3-sulfonic acid (1,2,3,4-tetrahydro-isoquinolin-7-yl)-amide hydrochloride] yielded an inhibition at 0.01 µM (compound at 10 nM) of 77.5%, an inhibition at 0.1 µM (compound at 100 nM) of 85.8% and a Ki of 2.1 nM.

Work on O=S(=O)(Nc1ccc2c(c1)CNCC2)c1ccc(F)c2ccccc12 [Example 80, 4-Fluoro-naphthalene-1-sulfonic acid (1,2,3,4-tetrahydro-isoquinolin-7-yl)-amide hydrochloride] yielded an inhibition at 0.01 µM (compound at 10 nM) of 70%, an inhibition at 0.1 µM (compound at 100 nM) of 83.6% and a Ki of 6.5 ± 0.5 nM.

O=S(=O)(Nc1ccc2c(c1)CNCC2)c1ccc(Cl)c2ccccc12 [Example 81, 4-Chloro-naphthalene-1-sulfonic acid (1,2,3,4-tetrahydro-isoquinolin-7-yl)-amide hydrochloride] showed an inhibition at 0.01 µM (compound at 10 nM) of 70.3%, an inhibition at 0.1 µM (compound at 100 nM) of 84.1% and a Ki of 9.4 ± 3.7 nM.

CCc1ccc(OC)c(S(=O)(=O)Nc2ccc3c(c2)CNCC3)c1 [Example 86, 5-Ethyl-2-methoxy-N-(1,2,3,4-tetrahydro-isoquinolin-7-yl)-benzenesulfonamide hydrochloride] gave an inhibition at 0.01 µM (compound at 10 nM) of 78.9%, an inhibition at 0.1 µM (compound at 100 nM) of 88.4% and a Ki of 6.1 ± 0.7 nM.

For O=S(=O)(Nc1ccc2c(c1)CCNC2)c1ccc2ccccc2c1 [Example 153, Naphthalene-2-sulfonic acid (1,2,3,4-tetrahydro-isoquinolin-6-yl)-amide], the “Binding % [10 nM]” value (compound at 10 nM) was 52.9%, the “Binding % [100 nM]” value (compound at 100 nM) was 88.2% and the Ki was 8.7 ± 0.4 nM.

Work on O=S(=O)(Nc1ccc2c(c1)CNCC2)c1cccc2c(Cl)cccc12 [Example 154, 5-Chloro-naphthalene-1-sulfonic acid (1,2,3,4-tetrahydro-isoquinolin-7-yl)-amide Hydrochloride] yielded an inhibition at 0.01 µM (compound at 10 nM) of 65.7%, an inhibition at 0.1 µM (compound at 100 nM) of 85.1% and a Ki of 39.7 ± 7.4 nM.
